Test results: paper PMC9416200, “Antifungal Potential of Synthetic Peptides against Cryptococcus neoformans: Mechanism of Action Studies Reveal Synthetic Peptides Induce Membrane–Pore Formation, DNA Degradation, and Apoptosis” (Pharmaceutics, 2022)
≈ marks a conversion by molar mass, not a printed value.

Columns and labels:
[1] = system: Cryptococcus neoformans (ATCC 32045); assay: Minimum inhibitory concentration assay, broth microdilution; type: cell-based; details: YPD, 10^6 cells mL^−1, peptides 50 to 0.004 µg mL^−1, 24 h, absorbance 600 nm, ND = MIC50 not reached, three independent experiments
C. neoformans infection = system: C. neoformans infection; design: method as in PMID 34203688; details: treated mice; cited from earlier work
[2] = system: laccase from C. neoformans; details: cited from earlier work

With `CCC(C)n1ncn(-c2ccc(N3CCN(c4ccc(OCC5COC(Cn6cncn6)(c6ccc(Cl)cc6Cl)O5)cc4)CC3)cc2)c1=O` (centres unmarked) [Itraconazole] the MIC50 ([1]; Cryptococcus neoformans, ATCC32045, concentration required to inhibit 50% of yeast growth, read-out: MIC50 against C. neoformans) was 500 µg/mL (≈ 709 µM).

For `O=c1oc2c(O)c(O)cc3c(=O)oc4c(O)c(O)cc1c4c23` [EA, Ellagic acid], the “survival rate toward C. neoformans infection” value (C. neoformans infection) is listed as 70% and the “inhibition of laccase from C. neoformans” value [2] is listed as “interacts and inhibits the laccase”.

In the case of `OC(Cn1cncn1)(Cn1cncn1)c1ccc(F)cc1F` [fluconazole], the “survival rate toward C. neoformans infection” value (C. neoformans infection) is given as 20%.

In the case of `C[C@@H]1[C@H](O)[C@@H](C)/C=C/C=C/CC/C=C/C=C/C=C/C=C/C(O[C@H]2O[C@H](C)[C@@H](O)[C@H](N)[C@@H]2O)CC2O[C@](O)(CC(O)C(O)CCC(O)CC(O)CC(O)CC(=O)O[C@H]1C)CC(O)C2C(=O)O` (some centres unmarked) [Nystatin], the “MIC50 against C. neoformans” value ([1]; concentration required to inhibit 50% of yeast growth) is reported as 250 µg/mL (≈ 270 µM).
